The values below come from PubChem BioAssay AID336 (DTP/NCI, 2004).

In this experiment the test system is BDF1 mice, P388/VCR leukemia ip, median survival T/C. The experiment is described as follows: NCI In Vivo Anticancer Drug Screen. Data for tumor model P388 Leukemia resistant to Vincristine; NSC 67574 (intraperitoneal) in B6D2F1 (BDF1) mice. The conditions noted are these: endpoint: median survival time, higher = longer survival. As for the experimental part:
The antitumor activity of compounds was measured in mice bearing transplantable tumors. Survival or tumor size were measured and the results are expressed as the measurement made in the treated group (T) divided by the measurement made in the vehicle treated control group (C). The tumor model used in this assay is P388 Leukemia resistant to Vincristine; NSC 67574 (intraperitoneal) in B6D2F1 (BDF1) mice

[1] abbreviates: dose: 250.0 mg/kg/injection, schedule: Q01DX010 (ip), vehicle: saline.
[2] abbreviates: dose: 20.0 mg/kg/injection, schedule: Q01DX010 (ip), vehicle: saline.
Setting [3] is: dose: 40.0 mg/kg/injection, schedule: Q01DX010 (ip), vehicle: saline.
The mark [4] stands for this setting: dose: 16.0 mg/kg/injection, schedule: Q01DX010 (ip), vehicle: saline.

The structures appear in SMILES notation. Where “and” joins values, the source holds several entries; their conditions need not be identical. Equal values may be shown once. Inconclusive results and toxic doses are left out.

On to `CC(=O)O[C@]1(C(C)=O)CC[C@H]2[C@@H]3C[C@H](C)C4=CC(=O)C=C[C@]4(C)[C@@]3(F)[C@@H](O)C[C@@]21C`, for which the T/C (dose: 12.5 mg/kg/injection, schedule: Q01DX010 (sc), vehicle: steriod suspending solution) was 103 % of control; the T/C (dose: 25.0 mg/kg/injection, schedule: Q01DX010 (sc), vehicle: steriod suspending solution) was 116 % of control; the T/C (dose: 50.0 mg/kg/injection, schedule: Q01DX010 (sc), vehicle: steriod suspending solution) is 110 % of control; the T/C (dose: 100.0 mg/kg/injection, schedule: Q01DX010 (sc), vehicle: steriod suspending solution) is 113 % of control.

`CO[C@H]1Nc2c(ccc(C)c2O)C(=O)N2C=C(/C=C/C(N)=O)C[C@@H]12`: the T/C (dose: 151.0 micrograms/kg/injection, schedule: Q04DX003 (ip), vehicle: saline + alcohol) is 113 % of control and the T/C (dose: 360.0 micrograms/kg/injection, schedule: Q04DX003 (ip), vehicle: saline + alcohol) was 122 % of control.

As to `CC1CN=C(c2ccc(NC(=O)c3ccc(C(=O)Nc4ccc(C5=NCC(C)N5)cc4)cc3)cc2)N1` (stereo not drawn), the T/C (dose: 22.0 mg/kg/injection, schedule: Q01DX010 (ip), vehicle: saline) was 113 % of control and the T/C (dose: 33.0 mg/kg/injection, schedule: Q01DX010 (ip), vehicle: saline) is 109 % of control.

As for `c1ccc(CCSc2ncnc3nc[nH]c23)cc1`, the T/C runs as follows: (dose: 62.5 mg/kg/injection, schedule: Q01DX010 (ip), vehicle: saline) 88 % of control; (dose: 125.0 mg/kg/injection, schedule: Q01DX010 (ip), vehicle: saline) 88 % of control; under setting [1], 96 % of control; (dose: 500.0 mg/kg/injection, schedule: Q01DX010 (ip), vehicle: saline) 107 % of control.

As to `CSc1ncnc2nc[nH]c12`, the T/C runs as follows: (dose: 25.0 mg/kg/injection, schedule: Q01DX010 (ip), vehicle: saline) 104 % of control and 107 % of control; (dose: 50.0 mg/kg/injection, schedule: Q01DX010 (ip), vehicle: saline) 103 % of control and 116 % of control; (dose: 100.0 mg/kg/injection, schedule: Q01DX010 (ip), vehicle: saline) 112 % of control and 115 % of control; (dose: 200.0 mg/kg/injection, schedule: Q01DX010 (ip), vehicle: saline) 111 % of control and 112 % of control.

On to `Nc1nc(N)c2nc(CNc3ccc(C(=O)NC(CCC(=O)O)C(=O)O)cc3)cnc2n1` (stereo not drawn), for which the T/C is, setting by setting: (dose: 25.0 micrograms/kg/injection, schedule: Q01DX010 (ip), vehicle: other) 118 % of control; (dose: 50.0 micrograms/kg/injection, schedule: Q01DX010 (ip), vehicle: other) 114 % of control; (dose: 200.0 micrograms/kg/injection, schedule: Q01DX010 (ip), vehicle: other) 166 % of control and 175 % of control.

As to `CC1CCOS(=O)O1` (stereo not drawn), the T/C by setting is: (dose: 10.0 mg/kg/injection, schedule: Q01DX010 (ip), vehicle: saline) 96 % of control; under setting [2], 103 % of control; under setting [3], 103 % of control.

Regarding `CCCCn1cnc2c(=S)nc[nH]c21`, the T/C under setting [4] was 107 % of control; the T/C (dose: 32.0 mg/kg/injection, schedule: Q01DX010 (ip), vehicle: saline) was 96 % of control; the T/C (dose: 64.0 mg/kg/injection, schedule: Q01DX010 (ip), vehicle: saline) was 100 % of control.

In the case of `N=C(N)c1ccc(Nc2ccc(C(=N)N)cc2)cc1`, the T/C was 106 % of control (dose: 1.5 mg/kg/injection, schedule: Q01DX010 (ip), vehicle: saline); 92 % of control and 106 % of control (dose: 3.0 mg/kg/injection, schedule: Q01DX010 (ip), vehicle: saline); 89 % of control and 106 % of control (dose: 6.0 mg/kg/injection, schedule: Q01DX010 (ip), vehicle: saline); 92 % of control and 113 % of control (dose: 12.0 mg/kg/injection, schedule: Q01DX010 (ip), vehicle: saline).

For `O=c1[nH]c(=O)n(C2CC(O)C(CO)O2)cc1F` (stereo not drawn), the T/C under setting [2] was 112 % of control and the T/C under setting [3] is 154 % of control.

On to `O=C(Nc1ccc(C2=NCCCN2)cc1)c1ccc(C(=O)Nc2ccc(C3=NCCCN3)cc2)cc1`, for which the T/C (dose: 20.0 mg/kg/injection, schedule: Q04DX003 (ip), vehicle: Klucel (hydroxypropylcellulose) (HPC)) is 158 % of control and the T/C (dose: 33.3 mg/kg/injection, schedule: Q04DX003 (ip), vehicle: Klucel (hydroxypropylcellulose) (HPC)) was 101 % of control.

Turning to `O=C(Nc1ccc(C2=NCCN2)cc1)c1cc(C(=O)Nc2ccc(C3=NCCN3)cc2)cc([N+](=O)[O-])c1`, the T/C was 95 % of control (dose: 167.0 mg/kg/injection, schedule: Q01DX010 (ip), vehicle: saline); 100 % of control under setting [1]; 95 % of control (dose: 375.0 mg/kg/injection, schedule: Q01DX010 (ip), vehicle: saline); 100 % of control (dose: 512.0 mg/kg/injection, schedule: Q01DX010 (ip), vehicle: saline).

Regarding `NC(C/[N+]([O-])=N/O)C(=O)O` (stereo not drawn), the T/C reads like this: (dose: 173.0 mg/kg/injection, schedule: Q04DX003 (ip), vehicle: sodium bicarbonate) 157 % of control; (dose: 288.0 mg/kg/injection, schedule: Q04DX003 (ip), vehicle: sodium bicarbonate) 179 % of control; (dose: 480.0 mg/kg/injection, schedule: Q04DX003 (ip), vehicle: sodium bicarbonate) 181 % of control; (dose: 800.0 mg/kg/injection, schedule: Q04DX003 (ip), vehicle: sodium bicarbonate) 118 % of control.

Turning to `Nc1nncs1`, the T/C was 101 % of control (dose: 64.8 mg/kg/injection, schedule: Q04DX003 (ip), vehicle: saline) and 151 % of control (dose: 180.0 mg/kg/injection, schedule: Q04DX003 (ip), vehicle: saline).

For the compound `CN(Cc1cnc2nc(N)nc(N)c2n1)c1ccc(C(=O)N[C@@H](CCC(=O)O)C(=O)O)cc1`, the T/C was 167 % of control (dose: 8.64 mg/kg/injection, schedule: Q04DX003 (ip), vehicle: sodium bicarbonate); 188 % of control (dose: 14.4 mg/kg/injection, schedule: Q04DX003 (ip), vehicle: sodium bicarbonate); 214 % of control (dose: 24.0 mg/kg/injection, schedule: Q04DX003 (ip), vehicle: sodium bicarbonate).

Turning to `Nc1nc(=S)c2ncn(C3OC(CO)C(O)C3O)c2[nH]1` (stereo not drawn), the T/C is 92 % of control (dose: 0.5 mg/kg/injection, schedule: Q01DX010 (ip), vehicle: saline); 107 % of control (dose: 1.0 mg/kg/injection, schedule: Q01DX010 (ip), vehicle: saline); 155 % of control (dose: 2.0 mg/kg/injection, schedule: Q01DX010 (ip), vehicle: saline); 110 % of control (dose: 4.0 mg/kg/injection, schedule: Q01DX010 (ip), vehicle: saline); 105 % of control (dose: 8.0 mg/kg/injection, schedule: Q01DX010 (ip), vehicle: saline); 100 % of control under setting [4].

In the case of `COC(=O)C[C@](O)(CCCC(C)(C)O)C(=O)O[C@@H]1C(OC)=C[C@]23CCCN2CCc2cc4c(cc2[C@H]13)OCO4`, the T/C runs as follows: (dose: 0.72 mg/kg/injection, schedule: Q04DX003 (ip), vehicle: acid diluted with saline) 100 % of control; (dose: 1.2 mg/kg/injection, schedule: Q04DX003 (ip), vehicle: acid diluted with saline) 100 % of control; (dose: 2.0 mg/kg/injection, schedule: Q04DX003 (ip), vehicle: acid diluted with saline) 98 % of control; (dose: 3.33 mg/kg/injection, schedule: Q04DX003 (ip), vehicle: acid diluted with saline) 97 % of control.

For `Oc1cc(CN(CCCl)CCCl)c(O)cc1CN(CCCl)CCCl`, the T/C (dose: 0.31 mg/kg/injection, schedule: Q01DX010 (ip), vehicle: saline) is 112 % of control; the T/C (dose: 2.5 mg/kg/injection, schedule: Q01DX010 (ip), vehicle: saline) was 117 % of control; the T/C (dose: 5.0 mg/kg/injection, schedule: Q01DX010 (ip), vehicle: saline) was 100 % of control.

Turning to `Nc1nc2n[nH]nc2c(=O)[nH]1`, the T/C is 155 % of control and 170 % of control (dose: 25.0 mg/kg/injection, schedule: Q01DX010 (ip), vehicle: alkali diluted with saline); 162 % of control and 191 % of control (dose: 50.0 mg/kg/injection, schedule: Q01DX010 (ip), vehicle: alkali diluted with saline); 170 % of control and 204 % of control (dose: 100.0 mg/kg/injection, schedule: Q01DX010 (ip), vehicle: alkali diluted with saline); 177 % of control and 204 % of control (dose: 200.0 mg/kg/injection, schedule: Q01DX010 (ip), vehicle: alkali diluted with saline).
